Results from patent US9212161B2, “Chiral synthesis of pyrrolidine core compounds en route to neuronal nitric oxide synthase inhibitors” (Northwestern University, priority 2010, dated 2015).

Tested on: rabbit fetuses
Assay: animal tests, rabbit fetuses under hypoxic conditions
Format: in vivo

Cc1cc(N)nc(C[C@@H]2CNC[C@@H]2OCCNCCc2cccc(F)c2)c1 [Compound 1]
neurological damage to rabbit fetuses: remarkable reduction in neurological damage
